According to patent US10072026B2, “Crystalline form of 3-((1R,3s,5S)-3-((7-((5-methyl-1H-pyrazol-3-yl)amino)-1,6-naphthyridin-5-yl)amino)-8-azabicyclo[3.2.1]octan-8-yl)propanenitrile” (priority 2015, dated 2018):
pKi: −log10 of the molar value. Where two headings read alike, the source gives them in different places.

What was measured:
JAK1 = JAK1 (Homo sapiens (Human), UniProt P23458); assay: LanthaScreen JAK biochemical assay (JAK1); conditions: for Ki: read-out: JAK 1 (pKi) (converted)
JAK2 = JAK2 (Homo sapiens (Human), UniProt O60674); assay: LanthaScreen JAK biochemical assay (JAK2); conditions: for Ki: read-out: JAK 2 (pKi) (converted)
Tyk2 = Tyk2 (Homo sapiens (Human), UniProt P29597); assay: LanthaScreen JAK biochemical assay (Tyk2); conditions: for Ki: read-out: Tyk 2 (pKi) (converted)
[1] = test system: IL-4 induced STAT6 phosphorylation in THP-1 human monocytic cells; assay: Cellular JAK potency assay, THP-1
[2] = test system: IL-13 induced STAT6 phosphorylation in BEAS-2B human lung epithelial cells; assay: AlphaScreen cellular JAK potency assay, BEAS-2B; conditions: for IC50: Homo sapiens, BEAS-2B, read-out: BEAS2B pIC50 (converted); for BEAS2B pIC50: IL-13 induced STAT6 phosphorylation, BEAS-2B cells
[3] = IL-4 induced STAT6 phosphorylation, THP-1 cells
[4] = Homo sapiens, THP-1, read-out: THP-1 IL4 pIC50 (converted)
[5] = THP-1 cells, IL-4 induced STAT6 phosphorylation

Tyk2, sequence (P29597 whole entry): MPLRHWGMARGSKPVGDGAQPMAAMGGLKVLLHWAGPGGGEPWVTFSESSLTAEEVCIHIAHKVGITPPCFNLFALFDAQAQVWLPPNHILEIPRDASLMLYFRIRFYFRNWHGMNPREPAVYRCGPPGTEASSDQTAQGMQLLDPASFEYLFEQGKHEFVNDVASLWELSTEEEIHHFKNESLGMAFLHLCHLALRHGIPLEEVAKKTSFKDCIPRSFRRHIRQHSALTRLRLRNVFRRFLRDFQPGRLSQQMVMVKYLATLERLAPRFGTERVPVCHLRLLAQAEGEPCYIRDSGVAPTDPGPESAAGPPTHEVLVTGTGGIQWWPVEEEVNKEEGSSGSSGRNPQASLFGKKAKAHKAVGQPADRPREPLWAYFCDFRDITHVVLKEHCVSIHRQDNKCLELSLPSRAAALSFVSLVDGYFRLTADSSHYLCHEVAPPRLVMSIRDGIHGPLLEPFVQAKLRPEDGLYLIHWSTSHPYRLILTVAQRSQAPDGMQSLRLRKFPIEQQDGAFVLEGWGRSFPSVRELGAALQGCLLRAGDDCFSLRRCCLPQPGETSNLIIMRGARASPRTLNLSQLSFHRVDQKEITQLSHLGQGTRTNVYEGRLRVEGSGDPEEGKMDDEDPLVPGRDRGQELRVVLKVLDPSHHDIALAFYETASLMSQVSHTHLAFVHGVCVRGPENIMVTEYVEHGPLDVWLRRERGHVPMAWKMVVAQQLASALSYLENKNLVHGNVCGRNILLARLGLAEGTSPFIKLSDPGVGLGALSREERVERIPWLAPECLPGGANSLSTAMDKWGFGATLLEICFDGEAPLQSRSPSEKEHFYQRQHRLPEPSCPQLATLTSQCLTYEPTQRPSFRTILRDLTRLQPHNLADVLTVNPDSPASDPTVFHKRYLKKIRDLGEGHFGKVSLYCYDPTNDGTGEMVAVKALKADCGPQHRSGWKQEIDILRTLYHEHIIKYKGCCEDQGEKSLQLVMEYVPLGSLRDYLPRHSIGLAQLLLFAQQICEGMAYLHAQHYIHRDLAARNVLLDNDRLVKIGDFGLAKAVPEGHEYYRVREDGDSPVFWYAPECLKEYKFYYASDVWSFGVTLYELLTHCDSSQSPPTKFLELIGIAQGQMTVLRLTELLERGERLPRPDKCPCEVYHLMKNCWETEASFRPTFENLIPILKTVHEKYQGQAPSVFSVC
JAK2, sequence (O60674 whole entry): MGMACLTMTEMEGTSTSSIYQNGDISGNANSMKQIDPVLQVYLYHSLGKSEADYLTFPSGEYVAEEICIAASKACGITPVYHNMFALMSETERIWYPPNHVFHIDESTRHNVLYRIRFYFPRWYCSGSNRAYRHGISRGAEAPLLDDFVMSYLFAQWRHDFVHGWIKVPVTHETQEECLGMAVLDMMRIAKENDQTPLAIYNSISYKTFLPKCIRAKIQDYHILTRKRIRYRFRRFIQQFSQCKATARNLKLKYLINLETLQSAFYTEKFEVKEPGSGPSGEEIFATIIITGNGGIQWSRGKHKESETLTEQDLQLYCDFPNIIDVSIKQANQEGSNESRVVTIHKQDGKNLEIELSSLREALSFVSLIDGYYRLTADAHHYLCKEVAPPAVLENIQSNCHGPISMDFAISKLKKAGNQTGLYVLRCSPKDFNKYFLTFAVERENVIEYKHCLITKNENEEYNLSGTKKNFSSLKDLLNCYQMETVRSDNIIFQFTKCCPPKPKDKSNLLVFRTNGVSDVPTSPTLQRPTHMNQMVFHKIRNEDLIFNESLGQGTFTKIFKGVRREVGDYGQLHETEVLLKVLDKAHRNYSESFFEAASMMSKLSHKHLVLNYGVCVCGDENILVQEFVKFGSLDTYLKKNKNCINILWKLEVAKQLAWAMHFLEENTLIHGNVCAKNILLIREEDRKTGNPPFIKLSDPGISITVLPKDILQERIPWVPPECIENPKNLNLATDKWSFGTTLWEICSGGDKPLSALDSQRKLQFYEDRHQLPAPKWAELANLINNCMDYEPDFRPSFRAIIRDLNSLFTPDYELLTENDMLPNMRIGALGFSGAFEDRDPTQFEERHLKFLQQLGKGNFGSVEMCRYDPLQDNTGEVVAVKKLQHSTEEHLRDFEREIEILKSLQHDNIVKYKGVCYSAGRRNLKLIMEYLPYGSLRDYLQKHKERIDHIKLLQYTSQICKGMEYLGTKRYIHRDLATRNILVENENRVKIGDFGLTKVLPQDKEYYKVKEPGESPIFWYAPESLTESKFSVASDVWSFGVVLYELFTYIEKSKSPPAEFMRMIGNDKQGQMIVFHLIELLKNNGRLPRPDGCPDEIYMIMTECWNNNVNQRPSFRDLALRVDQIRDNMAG
JAK1, sequence (P23458 whole entry): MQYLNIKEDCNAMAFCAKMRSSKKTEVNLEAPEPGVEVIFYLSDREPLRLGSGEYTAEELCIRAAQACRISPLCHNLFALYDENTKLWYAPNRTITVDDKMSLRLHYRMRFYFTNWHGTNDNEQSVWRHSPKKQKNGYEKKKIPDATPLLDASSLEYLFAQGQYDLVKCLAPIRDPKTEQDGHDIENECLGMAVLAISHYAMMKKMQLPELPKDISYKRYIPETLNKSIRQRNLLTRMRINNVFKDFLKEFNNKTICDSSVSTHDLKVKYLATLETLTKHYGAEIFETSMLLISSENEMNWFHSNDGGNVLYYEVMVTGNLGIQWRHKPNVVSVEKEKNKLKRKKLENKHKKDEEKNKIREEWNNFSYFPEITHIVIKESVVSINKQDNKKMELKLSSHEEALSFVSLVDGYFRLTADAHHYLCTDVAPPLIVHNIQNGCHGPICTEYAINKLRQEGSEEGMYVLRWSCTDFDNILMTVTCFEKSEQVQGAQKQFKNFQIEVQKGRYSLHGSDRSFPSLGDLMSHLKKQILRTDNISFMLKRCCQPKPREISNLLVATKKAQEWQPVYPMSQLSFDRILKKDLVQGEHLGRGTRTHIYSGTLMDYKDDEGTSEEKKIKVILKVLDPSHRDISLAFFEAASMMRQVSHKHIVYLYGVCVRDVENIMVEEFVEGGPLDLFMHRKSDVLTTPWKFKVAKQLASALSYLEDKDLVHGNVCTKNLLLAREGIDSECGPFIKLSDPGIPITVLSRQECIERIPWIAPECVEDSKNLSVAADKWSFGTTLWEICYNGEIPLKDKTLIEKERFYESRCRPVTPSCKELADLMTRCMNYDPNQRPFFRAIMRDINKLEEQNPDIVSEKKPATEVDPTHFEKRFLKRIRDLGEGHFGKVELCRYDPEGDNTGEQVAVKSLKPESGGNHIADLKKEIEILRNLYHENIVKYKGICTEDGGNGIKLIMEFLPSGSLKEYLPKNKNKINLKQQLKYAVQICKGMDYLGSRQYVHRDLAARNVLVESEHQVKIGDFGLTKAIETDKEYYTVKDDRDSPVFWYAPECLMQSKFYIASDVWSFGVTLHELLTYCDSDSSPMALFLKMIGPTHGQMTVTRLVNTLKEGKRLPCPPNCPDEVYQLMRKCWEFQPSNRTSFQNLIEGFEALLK

SMILES	JAK 1 (pKi) (JAK1)	JAK 2 (pKi) (JAK2)	Tyk 2 (pKi) (Tyk2)	Ki (Tyk2) [nM]	IC50 [1, 4] [nM]	other results
COCCCN1[C@@H]2CC[C@H]1C[C@H](Nc1nc(Nc3cc(C)[nH]n3)cc3ncccc13)C2 [Example 1-15]	C (C represents a pKi value between 7 and 9 (Ki between 100 nM and 1 nM))	C (C represents a pKi value between 7 and 9 (Ki between 100 nM and 1 nM))	C (C represents a pKi value between 7 and 9 (Ki between 100 nM and 1 nM))	–	–	THP-1 IL4 pIC50 [1, 3]: C (C represents a pEC50 value<6.7 (EC50>200 nM))
COc1cnc2cc(Nc3cc(C)[nH]n3)nc(N[C@@H]3C[C@H]4CC[C@@H](C3)N4S(=O)(=O)CC3(C#N)CC3)c2c1 [Example 6-23]	–	–	–	0.1 to 1	–	Ki (JAK1): 0.1 to 1 nM; IC50 [2]: 31.6 to 200 nM
Cc1cc(Nc2cc3ncccc3c(N[C@@H]3C[C@H]4CC[C@@H](C3)N4CC3(C#N)CC3)n2)n[nH]1 [Example 1-24]	–	–	–	0.1 to 1	31.6 to 200	Ki (JAK1): 0.1 to 1 nM; IC50 [2]: < 31.6 nM
Cc1cc(Nc2cc3nc(CN4CCOCC4)ccc3c(N[C@@H]3C[C@H]4CCC[C@@H](C3)N4CCC#N)n2)n[nH]1 [Example 5-26]	A (A represents a pKi value≥10 (Ki≤0.1 nM))	A (A represents a pKi value≥10 (Ki≤0.1 nM))	B (B represents a pKi value between 9 and 10 (Ki between 1 nM and 0.1 nM))	–	–	THP-1 IL4 pIC50 [1, 3]: A (A represents a pEC50 value≥7.5 (EC50≤32 nM))
COC(=O)c1cnc2cc(Nc3cc(C)[nH]n3)nc(N[C@@H]3C[C@H]4CC[C@@H](C3)N4C3CCOC3=O)c2c1 (stereo partly drawn) [Example 6-35]	–	–	–	0.1 to 1	31.6 to 200	Ki (JAK1): 0.1 to 1 nM
Cc1cc(Nc2cc3nc(CN4CCN(C)CC4)ccc3c(N[C@@H]3C[C@H]4CC[C@@H](C3)N4S(=O)(=O)N3CCC3)n2)n[nH]1 [Example 5-39]	–	–	–	0.1 to 1	31.6 to 200	pKi (JAK1): 9.00 to 10.00; Ki (JAK2): 0.1 to 1 nM
Cc1cc(Nc2cc3ncccc3c(N[C@@H]3C[C@H]4CCC[C@@H](C3)N4S(=O)(=O)CC(C)C)n2)n[nH]1 [Example 4-17]	B (B represents a pKi value between 9 and 10 (Ki between 1 nM and 0.1 nM))	B (B represents a pKi value between 9 and 10 (Ki between 1 nM and 0.1 nM))	B (B represents a pKi value between 9 and 10 (Ki between 1 nM and 0.1 nM))	–	–	THP-1 IL4 pIC50 [1, 3]: A (A represents a pEC50 value≥7.5 (EC50≤32 nM))
COC(=O)c1cnc2cc(Nc3cc(C)[nH]n3)nc(N[C@@H]3C[C@H]4CC[C@@H](C3)N4S(C)(=O)=O)c2c1 [Example 6-33]	–	–	–	0.1 to 1	31.6 to 200	–
COc1cnc2cc(Nc3cc(C)[nH]n3)nc(N[C@@H]3C[C@H]4CC[C@@H](C3)N4S(C)(=O)=O)c2c1 [Example 6-18]	–	–	–	0.1 to 1	< 31.6	IC50 [2]: < 31.6 nM
Cc1cc(Nc2cc3ncccc3c(N[C@@H]3C[C@H]4CCC[C@@H](C3)N4S(=O)(=O)c3cncc(F)c3)n2)n[nH]1 [Example 14, N^5-((1R,3s,5S)-9-((5-fluoropyridin-3-yl)sulfonyl)-9-azabicyclo[3.3.1]nonan-3-yl)-N^7-(5-methyl-1H-pyrazol-3-yl)-1,6-naphthyridine-5,7-diamine]	–	–	–	0.1 to 1	< 31.6	IC50 [2]: < 31.6 nM
Cc1cc(Nc2cc3ncccc3c(N[C@@H]3C[C@H]4CCC[C@@H](C3)N4CC(N)=O)n2)n[nH]1 [Example 1-37]	–	A (A represents a pKi value≥10 (Ki≤0.1 nM))	C (C represents a pKi value between 7 and 9 (Ki between 100 nM and 1 nM))	–	–	THP-1 IL4 pIC50 [1, 3]: B (B represents a pEC50 value between 6.7 and 7.5 (EC50 between 200 nM and 32 nM))
Cc1cc(Nc2cc3ncccc3c(N[C@@H]3C[C@H]4CC[C@@H](C3)N4C3CCCOC3=O)n2)n[nH]1 (stereo partly drawn) [Example 1-28]	–	–	–	1 to 100	> 200	Ki (JAK2): 1 to 100 nM
Cc1cc(Nc2cc3ncccc3c(N[C@@H]3C[C@H]4CC[C@@H](C3)N4C(=O)CF)n2)n[nH]1 [Example 2-2]	–	–	–	1 to 100	–	Ki (JAK1): 0.1 to 1 nM; Ki (JAK2): 1 to 100 nM
COc1ccnc2cc(Nc3cc(C)[nH]n3)nc(N[C@@H]3C[C@H]4CC[C@@H](C3)N4C3(CC#N)COC3)c12 [Example 7-10]	–	–	–	0.1 to 1	–	Ki (JAK1): 0.1 to 1 nM; Ki (JAK2): 0.1 to 1 nM
COc1cnc2cc(Nc3cc(C)[nH]n3)nc(N[C@@H]3C[C@H]4CC[C@@H](C3)N4CCC#N)c2c1 [Example 6-11]	B (B represents a pKi value between 9 and 10 (Ki between 1 nM and 0.1 nM))	B (B represents a pKi value between 9 and 10 (Ki between 1 nM and 0.1 nM))	B (B represents a pKi value between 9 and 10 (Ki between 1 nM and 0.1 nM))	–	–	THP-1 IL4 pIC50 [1, 5]: A (A represents a pEC50 value≥7.5 (EC50≤32 nM))
COc1cnc2cc(Nc3cc(C)[nH]n3)nc(N[C@@H]3C[C@H]4CC[C@@H](C3)N4S(=O)(=O)N3CC(C#N)C3)c2c1 [Example 6-20]	–	–	–	0.1 to 1	–	Ki (JAK1): 0.1 to 1 nM; pKi (JAK2): 9.00 to 10.00; IC50 [2]: 31.6 to 200 nM
Cc1cnc2c(F)c(Nc3cc(C)[nH]n3)nc(N[C@@H]3C[C@H]4CC[C@@H](C3)N4S(=O)(=O)c3cccnc3)c2c1 [Example 8-20]	B (B represents a pKi value between 9 and 10 (Ki between 1 nM and 0.1 nM))	C (C represents a pKi value between 7 and 9 (Ki between 100 nM and 1 nM))	C (C represents a pKi value between 7 and 9 (Ki between 100 nM and 1 nM))	–	–	THP-1 IL4 pIC50 [1, 5]: C (C represents a pEC50 value<6.7 (EC50>200 nM))
Cc1cc(Nc2cc3ncccc3c(N[C@@H]3C[C@H]4CC[C@@H](C3)N4S(C)(=O)=O)n2)n[nH]1 [Example 4-1]	–	–	–	0.1 to 1	< 31.6	Ki (JAK2): 0.1 to 1 nM
CCOC(=O)N1[C@@H]2CCC[C@H]1C[C@H](Nc1nc(Nc3cc(C)[nH]n3)cc3ncccc13)C2 [Example 3-6]	B (B represents a pKi value between 9 and 10 (Ki between 1 nM and 0.1 nM))	–	B (B represents a pKi value between 9 and 10 (Ki between 1 nM and 0.1 nM))	–	–	THP-1 IL4 pIC50 [1, 3]: A (A represents a pEC50 value≥7.5 (EC50≤32 nM))
Cc1cnc2cc(Nc3cc(C)[nH]n3)nc(N[C@@H]3C[C@H]4CC[C@@H](C3)N4S(=O)(=O)N3CC(C#N)C3)c2c1 [Example 6-4]	–	–	–	0.1 to 1	< 31.6	Ki (JAK1): 0.1 to 1 nM; IC50 [2]: < 31.6 nM
COc1cnc2cc(Nc3cc(C)[nH]n3)nc(N[C@@H]3C[C@H]4CCC[C@@H](C3)N4C(=O)CN(C)C)c2c1 [Example 6-30]	B (B represents a pKi value between 9 and 10 (Ki between 1 nM and 0.1 nM))	B (B represents a pKi value between 9 and 10 (Ki between 1 nM and 0.1 nM))	B (B represents a pKi value between 9 and 10 (Ki between 1 nM and 0.1 nM))	–	–	THP-1 IL4 pIC50 [1, 5]: C (C represents a pEC50 value<6.7 (EC50>200 nM))
Cc1cc(Nc2cc3ncccc3c(N[C@@H]3C[C@H]4CC[C@@H](C3)N4C3(CC#N)COC3)n2)n[nH]1 [Example 1-25]	–	–	–	–	< 31.6	Ki (JAK1): 0.1 to 1 nM; pKi (Tyk2): 9.00 to 10.00; IC50 [2]: < 31.6 nM
Cc1cc(Nc2cc3ncccc3c(N[C@@H]3C[C@H]4CCC[C@@H](C3)N4C(=O)C(C)CC#N)n2)n[nH]1 (stereo partly drawn) [Example 2-29]	B (B represents a pKi value between 9 and 10 (Ki between 1 nM and 0.1 nM))	B (B represents a pKi value between 9 and 10 (Ki between 1 nM and 0.1 nM))	B (B represents a pKi value between 9 and 10 (Ki between 1 nM and 0.1 nM))	–	–	BEAS2B pIC50 [2]: B (B represents a pEC50 value between 6.7 and 7.5 (EC50 between 200 nM and 32 nM))
Cc1cc(Nc2cc3ncccc3c(N[C@@H]3C[C@H]4CCC[C@@H](C3)N4Cc3ccnc(C#N)c3)n2)n[nH]1 [Example 1-55]	–	–	C (C represents a pKi value between 7 and 9 (Ki between 100 nM and 1 nM))	–	–	BEAS2B pIC50 [2]: B (B represents a pEC50 value between 6.7 and 7.5 (EC50 between 200 nM and 32 nM))
CCS(=O)(=O)N1[C@@H]2CC[C@H]1C[C@H](Nc1nc(Nc3cc(C)[nH]n3)cc3ncc(C(=O)OC)cc13)C2 [Example 6-34]	–	–	–	0.1 to 1	< 31.6	–
Cc1cc(Nc2cc3ncccc3c(N[C@@H]3C[C@H]4CCC[C@@H](C3)N4C(=O)CCCC#N)n2)n[nH]1 [Example 2-27]	B (B represents a pKi value between 9 and 10 (Ki between 1 nM and 0.1 nM))	B (B represents a pKi value between 9 and 10 (Ki between 1 nM and 0.1 nM))	B (B represents a pKi value between 9 and 10 (Ki between 1 nM and 0.1 nM))	–	–	BEAS2B pIC50 [2]: B (B represents a pEC50 value between 6.7 and 7.5 (EC50 between 200 nM and 32 nM))
Cc1cc(Nc2cc3nc(CS(C)(=O)=O)ccc3c(N[C@@H]3C[C@H]4CC[C@@H](C3)N4CCF)n2)n[nH]1 [Example 5-41]	B (B represents a pKi value between 9 and 10 (Ki between 1 nM and 0.1 nM))	B (B represents a pKi value between 9 and 10 (Ki between 1 nM and 0.1 nM))	B (B represents a pKi value between 9 and 10 (Ki between 1 nM and 0.1 nM))	–	–	THP-1 IL4 pIC50 [1, 3]: C (C represents a pEC50 value<6.7 (EC50>200 nM))
Cc1cc(Nc2cc3ncccc3c(N[C@@H]3C[C@H]4CCC[C@@H](C3)N4C(=O)c3ccc(C#N)nc3)n2)n[nH]1 [Example 2-28]	B (B represents a pKi value between 9 and 10 (Ki between 1 nM and 0.1 nM))	–	B (B represents a pKi value between 9 and 10 (Ki between 1 nM and 0.1 nM))	–	–	BEAS2B pIC50 [2]: C (C represents a pEC50 value<6.7 (EC50>200 nM))
CCC1(S(=O)(=O)N2[C@@H]3CC[C@H]2C[C@H](Nc2nc(Nc4cc(C)[nH]n4)cc4ncccc24)C3)CC1 [Example 4-7]	–	–	–	0.1 to 1	< 31.6	pKi (JAK1): 9.00 to 10.00; Ki (JAK2): 0.1 to 1 nM
